Reference: ChEMBL document CHEMBL4229513, “Decoy peptides derived from the extracellular domain of toll-like receptor 2 (TLR2) show anti-inflammatory properties” (Bioorg Med Chem, 2018)
Active and inactive are the calls of the source. The calls are words filed in the database; no cut-off is given here.

Columns and labels:
Type in all cases: cell-based
[1] = molecular target: T1, Toll-like receptor 1/2 (Mus musculus) (UniProt Q9QUN7+Q9EPQ1); test: Antagonist activity at TLR2/TLR1 in mouse BMDM assessed as inhibition of Rhodamine-labeled Pam3CSK4-stimulated receptor internalization at 1 uM preincubated for 1 hr followed by Rhodamine-Pam3CSK4 stimulation for 20 mins by FACS analysis
Toll-like receptor 1/2 [2] = molecular target: T2, Toll-like receptor 1/2 (Homo sapiens, UniProt O60603+Q15399); test: Antagonist activity at FLAG-tagged human TLR2/TLR1 expressed in HEK293 cells assessed as inhibition of Pam3CSK4-stimulated MAPK p38 phosphorylation at Thr180/Tyr182 residues at 25 uM preincubated for 1 hr followed by Pam3CSK4 stimulation for 35 mins by immunoblot analysis
Toll-like receptor 1/2 [3] = molecular target: T2, Toll-like receptor 1/2; test: Antagonist activity at FLAG-tagged human TLR2/TLR1 expressed in HEK293 cells assessed as inhibition of Pam3CSK4-stimulated JNK phosphorylation at Thr183/Tyr185 residues at 25 uM preincubated for 1 hr followed by Pam3CSK4 stimulation for 35 mins by immunoblot analysis
Toll-like receptor 1/2 [4] = molecular target: T2, Toll-like receptor 1/2; test: Antagonist activity at FLAG-tagged human TLR2/TLR1 expressed in HEK293 cells co-expressing pGL3-Elam.luc assessed as inhibition of Pam3CSK4-stimulated NF-kappaB activation at 50 uM preincubated for 1 hr followed by Pam3CSK4 stimulation for 5 hrs by luciferase reporter gene assay relative to control
Toll-like receptor 1/2 [5] = molecular target: T2, Toll-like receptor 1/2; test: Antagonist activity at TLR2/TLR1 in human PBMC assessed as inhibition of Pam3CSK4-stimulated IL-10 production by measuring IL-10 level at 100 uM preincubated with cells followed by overnight Pam3CSK4 stimulation by ELISA (reference value: 794 pg/ml)
Toll-like receptor 1/2 [6] = molecular target: T2, Toll-like receptor 1/2; test: Antagonist activity at FLAG-tagged human TLR2/TLR1 expressed in HEK293 cells assessed as inhibition of Pam3CSK4-stimulated MAPK p38 phosphorylation at Thr180/Tyr182 residues at 50 uM preincubated for 1 hr followed by Pam3CSK4 stimulation for 35 mins by immunoblot analysis
Toll-like receptor 1/2 [7] = molecular target: T2, Toll-like receptor 1/2; test: Antagonist activity at FLAG-tagged human TLR2/TLR1 expressed in HEK293 cells co-expressing pGL3-Elam.luc assessed as Pam3CSK4-stimulated NF-kappaB activation at 50 uM preincubated for 1 hr followed by Pam3CSK4 stimulation for 5 hrs by luciferase reporter gene assay relative to control; set-up: scale not given: the % may be the effect or the level left
THP-1 = test: Cytotoxicity against human THP1 cells at 100 uM after overnight incubation by CCK8 assay; conditions: thp-1, 100 µM
[8] = molecular target: TLR7 and TLR8 (Mus musculus) (UniProt P58681+P58682); test: Antagonist activity at TLR7/TLR8 in mouse BMDM assessed as inhibition of R848-stimulated TNFalpha production at 25 uM preincubated for 1 hr followed by R848 stimulation for 11 hrs by ELISA
Toll-like receptor 1/2 [9] = molecular target: T2, Toll-like receptor 1/2; test: Antagonist activity at FLAG-tagged human TLR2/YFP-tagged TLR1 expressed in HEK293 cells assessed as inhibition of Pam3CSK4-stimulated TLR1/TLR2 heterodimerization at 25 uM preincubated for 1 hr followed by Pam3CSK4 stimulation for 15 mins by immunoblot analysis
HEK293 = test: Cytotoxicity against HEK293 cells at 100 uM after overnight incubation by CCK8 assay; conditions: human, hek293, 100 µM
[10] = molecular target: T3, Toll-like receptor 4 (Mus musculus) (UniProt Q9QUK6); test: Antagonist activity at TLR4 in mouse BMDM assessed as inhibition of LPS-stimulated TNFalpha production at 25 uM preincubated for 1 hr followed by LPS stimulation for 11 hrs by ELISA
T3 sequence (whole entry): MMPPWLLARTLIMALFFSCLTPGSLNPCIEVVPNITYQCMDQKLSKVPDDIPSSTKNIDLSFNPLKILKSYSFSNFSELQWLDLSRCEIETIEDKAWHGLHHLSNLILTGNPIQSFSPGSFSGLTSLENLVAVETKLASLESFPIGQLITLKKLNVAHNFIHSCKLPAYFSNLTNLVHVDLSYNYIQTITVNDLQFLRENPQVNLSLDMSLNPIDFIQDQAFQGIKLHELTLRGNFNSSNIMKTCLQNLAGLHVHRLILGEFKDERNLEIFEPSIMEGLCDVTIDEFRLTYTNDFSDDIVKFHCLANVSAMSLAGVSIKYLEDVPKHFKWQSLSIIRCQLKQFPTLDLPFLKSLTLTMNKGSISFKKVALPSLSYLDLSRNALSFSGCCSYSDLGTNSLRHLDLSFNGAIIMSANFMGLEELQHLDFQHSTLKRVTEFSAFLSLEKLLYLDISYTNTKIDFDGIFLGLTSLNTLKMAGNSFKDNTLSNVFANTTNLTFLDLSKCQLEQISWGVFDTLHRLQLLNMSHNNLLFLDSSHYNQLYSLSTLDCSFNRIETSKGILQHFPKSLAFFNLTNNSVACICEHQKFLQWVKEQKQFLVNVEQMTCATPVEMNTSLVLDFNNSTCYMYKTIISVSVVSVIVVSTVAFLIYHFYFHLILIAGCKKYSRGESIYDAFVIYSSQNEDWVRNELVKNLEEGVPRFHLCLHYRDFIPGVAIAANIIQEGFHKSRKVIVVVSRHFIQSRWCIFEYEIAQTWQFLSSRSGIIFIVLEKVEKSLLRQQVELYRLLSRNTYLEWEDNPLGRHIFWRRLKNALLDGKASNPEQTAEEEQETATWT

[11] = molecular target: T1, Toll-like receptor 1/2 (Mus musculus); test: Antagonist activity at TLR2/TLR1 in mouse BMDM assessed as inhibition of Pam3CSK4-stimulated TNFalpha production by measuring TNFalpha level at 25 uM preincubated for 1 hr followed by Pam3CSK4 stimulation for 11 hrs by ELISA relative to control; set-up: scale not given: the % may be the effect or the level left
Toll-like receptor 1/2 [12] = molecular target: T2, Toll-like receptor 1/2; test: Antagonist activity at FLAG-tagged human TLR2/TLR1 expressed in HEK293 cells assessed as inhibition of Pam3CSK4-stimulated JNK phosphorylation at Thr183/Tyr185 residues at 50 uM preincubated for 1 hr followed by Pam3CSK4 stimulation for 35 mins by immunoblot analysis
[13] = molecular target: T4, Toll-like receptor 3 (Mus musculus) (UniProt Q99MB1); test: Antagonist activity at TLR3 in mouse BMDM assessed as inhibition of poly I:C-stimulated TNFalpha production at 25 uM preincubated for 1 hr followed by poly I:C stimulation for 11 hrs by ELISA
T4 sequence (whole entry): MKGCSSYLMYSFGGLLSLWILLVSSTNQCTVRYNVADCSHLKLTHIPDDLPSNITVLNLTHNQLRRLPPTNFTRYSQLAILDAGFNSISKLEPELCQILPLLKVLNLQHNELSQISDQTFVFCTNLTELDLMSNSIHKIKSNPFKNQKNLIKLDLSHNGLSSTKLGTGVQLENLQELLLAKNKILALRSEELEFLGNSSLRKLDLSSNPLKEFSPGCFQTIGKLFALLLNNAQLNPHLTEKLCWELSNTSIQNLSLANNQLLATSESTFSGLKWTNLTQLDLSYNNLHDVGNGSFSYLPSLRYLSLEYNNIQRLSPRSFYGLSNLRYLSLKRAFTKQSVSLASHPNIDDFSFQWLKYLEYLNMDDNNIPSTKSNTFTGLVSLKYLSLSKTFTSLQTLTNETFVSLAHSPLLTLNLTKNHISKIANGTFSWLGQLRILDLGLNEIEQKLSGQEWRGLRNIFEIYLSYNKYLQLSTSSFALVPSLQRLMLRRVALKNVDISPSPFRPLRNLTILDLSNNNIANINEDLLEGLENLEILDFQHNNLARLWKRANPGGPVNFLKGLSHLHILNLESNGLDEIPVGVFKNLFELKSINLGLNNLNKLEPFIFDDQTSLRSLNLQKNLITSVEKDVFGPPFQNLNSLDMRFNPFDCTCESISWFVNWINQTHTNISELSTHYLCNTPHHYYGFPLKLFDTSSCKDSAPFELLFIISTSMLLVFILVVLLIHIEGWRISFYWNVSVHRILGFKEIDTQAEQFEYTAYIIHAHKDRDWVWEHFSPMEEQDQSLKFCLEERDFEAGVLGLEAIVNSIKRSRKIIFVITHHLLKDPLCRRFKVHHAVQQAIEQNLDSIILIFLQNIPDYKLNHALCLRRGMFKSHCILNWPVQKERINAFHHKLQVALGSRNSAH

Toll-like receptor 1/2 [14] = molecular target: T2, Toll-like receptor 1/2; test: Antagonist activity at TLR2/TLR1 in human THP1 cells assessed as inhibition of Pam3CSK4-stimulated non-canonical NF-kB pathway by measuring reduction in p52 level at 50 uM preincubated for 1 hr followed by Pam3CSK4 stimulation for 2 hrs by immunoblot analysis
BMDM = test: Cytotoxicity against mouse BMDM at 100 uM after overnight incubation by CCK8 assay
TLR2/TLR6 (Homo sapiens) = TLR2/TLR6 (Homo sapiens) (UniProt O60603+Q9Y2C9); test: Antagonist activity at FLAG-tagged human TLR2/TLR6 expressed in HEK293 cells co-expressing pGL3-Elam.luc assessed as inhibition of Pam2CSK4-stimulated NF-kappaB activation preincubated for 1 hr followed by Pam2CSK4 stimulation for 5 hrs by luciferase reporter gene assay
Toll-like receptor 1/2 [15] = molecular target: T2, Toll-like receptor 1/2; test: Antagonist activity at FLAG-tagged human TLR2/TLR1 expressed in HEK293 cells assessed as inhibition of Pam3CSK4-stimulated IkBalpha degradation at 50 uM preincubated for 1 hr followed by Pam3CSK4 stimulation for 35 mins by immunoblot analysis
Toll-like receptor 1/2 [16] = molecular target: T2, Toll-like receptor 1/2; test: Antagonist activity at TLR2/TLR1 in human PBMC assessed as inhibition of Pam3CSK4-stimulated TNFalpha production at 50 uM preincubated with cells followed by overnight Pam3CSK4 stimulation by ELISA relative to control
[17] = molecular target: T1, Toll-like receptor 1/2 (Mus musculus); test: Antagonist activity at TLR2/TLR1 in mouse BMDM assessed as Rhodamine-labeled Pam3CSK4-stimulated receptor internalization at 50 uM preincubated for 1 hr followed by Rhodamine-Pam3CSK4 stimulation for 20 mins by FACS analysis relative to control; set-up: scale not given: the % may be the effect or the level left
[18] = molecular target: T1, Toll-like receptor 1/2 (Mus musculus); test: Antagonist activity at TLR2/TLR1 in mouse BMDM assessed as inhibition of Rhodamine-labeled Pam3CSK4-stimulated receptor internalization at 50 uM preincubated for 1 hr followed by Rhodamine-Pam3CSK4 stimulation for 20 mins by DAPI staining based phase contrast fluorescence microscopic method
Toll-like receptor 1/2 [19] = molecular target: T2, Toll-like receptor 1/2; test: Antagonist activity at FLAG-tagged human TLR2/TLR1 expressed in HEK293 cells co-expressing pGL3-Elam.luc assessed as inhibition of Pam3CSK4-stimulated NF-kappaB activation preincubated for 1 hr followed by Pam3CSK4 stimulation for 5 hrs by luciferase reporter gene assay
Toll-like receptor 1/2 [20] = molecular target: T2, Toll-like receptor 1/2; test: Antagonist activity at TLR2/TLR1 in human PBMC assessed as inhibition of Pam3CSK4-stimulated IL-10 production at 100 uM preincubated with cells followed by overnight Pam3CSK4 stimulation by ELISA

T2 sequence (O60603 whole entry): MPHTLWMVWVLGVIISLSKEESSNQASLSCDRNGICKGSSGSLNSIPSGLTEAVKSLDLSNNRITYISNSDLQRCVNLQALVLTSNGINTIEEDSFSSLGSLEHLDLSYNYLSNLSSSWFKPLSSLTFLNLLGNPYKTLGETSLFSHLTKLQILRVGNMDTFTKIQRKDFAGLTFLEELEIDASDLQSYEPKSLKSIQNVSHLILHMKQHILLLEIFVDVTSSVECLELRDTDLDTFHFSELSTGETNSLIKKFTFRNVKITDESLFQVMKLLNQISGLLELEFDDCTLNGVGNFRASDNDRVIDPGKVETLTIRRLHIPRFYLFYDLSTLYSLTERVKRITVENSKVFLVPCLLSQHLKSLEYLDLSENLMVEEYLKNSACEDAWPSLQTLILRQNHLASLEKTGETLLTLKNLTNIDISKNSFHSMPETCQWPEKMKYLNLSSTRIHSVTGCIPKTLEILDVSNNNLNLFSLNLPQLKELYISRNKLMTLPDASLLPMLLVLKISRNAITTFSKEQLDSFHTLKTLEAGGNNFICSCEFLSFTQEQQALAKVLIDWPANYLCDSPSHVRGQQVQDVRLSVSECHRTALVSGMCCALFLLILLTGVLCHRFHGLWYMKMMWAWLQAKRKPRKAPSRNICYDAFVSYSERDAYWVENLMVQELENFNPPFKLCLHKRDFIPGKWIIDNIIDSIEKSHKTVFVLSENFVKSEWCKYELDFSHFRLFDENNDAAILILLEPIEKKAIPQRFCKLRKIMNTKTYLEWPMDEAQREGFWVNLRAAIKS
T2 sequence (Q15399 whole entry): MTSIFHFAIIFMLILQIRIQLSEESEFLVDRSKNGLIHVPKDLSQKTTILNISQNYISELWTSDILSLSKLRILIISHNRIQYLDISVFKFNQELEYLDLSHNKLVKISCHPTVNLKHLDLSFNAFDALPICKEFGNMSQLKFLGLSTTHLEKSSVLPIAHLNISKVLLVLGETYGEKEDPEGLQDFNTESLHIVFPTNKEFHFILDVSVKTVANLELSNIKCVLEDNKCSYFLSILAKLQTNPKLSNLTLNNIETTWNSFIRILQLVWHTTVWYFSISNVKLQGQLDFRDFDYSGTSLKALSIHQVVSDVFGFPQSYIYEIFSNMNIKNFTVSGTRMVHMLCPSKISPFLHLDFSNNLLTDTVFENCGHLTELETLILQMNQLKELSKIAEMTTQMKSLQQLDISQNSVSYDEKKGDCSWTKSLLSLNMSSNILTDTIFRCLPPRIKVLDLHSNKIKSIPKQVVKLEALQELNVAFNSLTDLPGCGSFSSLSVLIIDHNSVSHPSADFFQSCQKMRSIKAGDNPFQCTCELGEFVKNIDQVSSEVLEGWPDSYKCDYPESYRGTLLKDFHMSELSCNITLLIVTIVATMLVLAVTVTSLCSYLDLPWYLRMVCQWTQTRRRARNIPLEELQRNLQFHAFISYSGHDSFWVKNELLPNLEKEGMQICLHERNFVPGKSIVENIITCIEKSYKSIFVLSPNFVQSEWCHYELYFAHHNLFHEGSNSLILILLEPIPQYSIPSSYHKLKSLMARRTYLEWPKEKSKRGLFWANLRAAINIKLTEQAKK
Sequence of TLR7 and TLR8 (Mus musculus) (P58681 whole entry, looked up): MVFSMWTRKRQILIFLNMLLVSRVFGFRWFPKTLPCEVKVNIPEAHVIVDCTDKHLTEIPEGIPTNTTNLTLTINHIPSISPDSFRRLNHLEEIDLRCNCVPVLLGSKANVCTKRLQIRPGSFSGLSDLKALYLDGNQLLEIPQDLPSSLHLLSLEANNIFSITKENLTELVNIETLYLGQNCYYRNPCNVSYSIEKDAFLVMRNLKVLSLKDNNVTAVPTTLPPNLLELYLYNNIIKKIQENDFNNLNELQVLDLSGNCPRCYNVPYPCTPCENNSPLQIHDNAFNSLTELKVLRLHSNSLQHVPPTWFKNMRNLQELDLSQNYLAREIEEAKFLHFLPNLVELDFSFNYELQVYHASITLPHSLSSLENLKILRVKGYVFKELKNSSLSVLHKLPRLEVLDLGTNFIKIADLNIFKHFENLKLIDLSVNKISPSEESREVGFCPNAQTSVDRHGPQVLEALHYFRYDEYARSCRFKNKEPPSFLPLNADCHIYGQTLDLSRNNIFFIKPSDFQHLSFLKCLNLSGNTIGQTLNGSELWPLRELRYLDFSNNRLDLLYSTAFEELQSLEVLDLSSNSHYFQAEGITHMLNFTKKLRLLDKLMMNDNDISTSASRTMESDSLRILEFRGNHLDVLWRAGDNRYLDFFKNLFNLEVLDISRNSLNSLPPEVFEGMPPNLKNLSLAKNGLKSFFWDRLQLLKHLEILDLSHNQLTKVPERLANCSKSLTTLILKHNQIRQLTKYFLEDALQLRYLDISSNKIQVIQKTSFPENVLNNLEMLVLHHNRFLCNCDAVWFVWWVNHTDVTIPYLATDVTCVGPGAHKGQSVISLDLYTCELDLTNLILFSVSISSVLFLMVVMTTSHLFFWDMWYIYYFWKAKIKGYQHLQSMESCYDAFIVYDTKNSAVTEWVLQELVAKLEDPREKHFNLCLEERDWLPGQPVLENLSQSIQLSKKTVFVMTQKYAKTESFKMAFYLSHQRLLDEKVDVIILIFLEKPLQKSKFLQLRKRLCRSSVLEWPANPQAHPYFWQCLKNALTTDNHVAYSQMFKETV
Sequence of TLR7 and TLR8 (Mus musculus) (P58682 whole entry, looked up): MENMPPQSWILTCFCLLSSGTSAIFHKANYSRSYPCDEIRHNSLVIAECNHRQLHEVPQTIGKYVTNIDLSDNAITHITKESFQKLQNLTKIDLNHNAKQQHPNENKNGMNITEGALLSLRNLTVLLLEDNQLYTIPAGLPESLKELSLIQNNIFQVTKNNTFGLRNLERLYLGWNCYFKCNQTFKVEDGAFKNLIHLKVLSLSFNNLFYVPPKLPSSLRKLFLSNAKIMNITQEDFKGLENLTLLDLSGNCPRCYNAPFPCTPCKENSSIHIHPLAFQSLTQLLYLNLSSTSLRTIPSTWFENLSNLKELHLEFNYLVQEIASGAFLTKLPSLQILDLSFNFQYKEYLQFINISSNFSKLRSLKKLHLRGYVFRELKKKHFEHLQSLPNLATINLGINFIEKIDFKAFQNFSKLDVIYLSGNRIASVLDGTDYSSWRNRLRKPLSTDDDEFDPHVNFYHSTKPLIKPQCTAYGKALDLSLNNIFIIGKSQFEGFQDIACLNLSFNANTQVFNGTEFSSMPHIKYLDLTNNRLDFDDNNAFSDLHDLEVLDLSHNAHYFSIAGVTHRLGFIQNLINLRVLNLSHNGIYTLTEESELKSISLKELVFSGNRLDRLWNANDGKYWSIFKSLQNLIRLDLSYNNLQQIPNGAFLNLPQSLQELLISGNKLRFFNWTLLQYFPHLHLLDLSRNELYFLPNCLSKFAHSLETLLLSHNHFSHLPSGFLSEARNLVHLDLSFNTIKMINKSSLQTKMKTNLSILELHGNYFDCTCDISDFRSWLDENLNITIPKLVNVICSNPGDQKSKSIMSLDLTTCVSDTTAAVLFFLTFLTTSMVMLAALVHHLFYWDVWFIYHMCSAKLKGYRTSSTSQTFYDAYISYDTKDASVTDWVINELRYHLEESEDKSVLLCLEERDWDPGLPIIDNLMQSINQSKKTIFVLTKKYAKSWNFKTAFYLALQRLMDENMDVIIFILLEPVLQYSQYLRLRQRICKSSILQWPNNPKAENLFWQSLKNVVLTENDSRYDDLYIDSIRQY

## C=C1[C@@H](C)[C@H]2[C@H](Cc3ccccc3)NC(=O)[C@]23[C@H](OC(C)=O)/C=C/[C@@](C)(O)C(=O)[C@@H](C)C/C=C/[C@H]3[C@@H]1O
[1]
  inhibition: Active

## Cc1cc(NC(=O)NC(=O)c2ccccc2N(C)C)ccc1Oc1ncc(Br)cn1
Toll-like receptor 1/2 [2]
  inhibition: Active
Toll-like receptor 1/2 [3]
  inhibition: Active

## H-ENLMVEEY-OH
Toll-like receptor 1/2 [4]
  inhibition: 66%

## H-ENLMVEEYLK-OH
Toll-like receptor 1/2 [5]
  Activity: 727 pg/mL
Toll-like receptor 1/2 [6]
  inhibition: Active
Toll-like receptor 1/2 [7]
  Activity: 51%
THP-1
  Activity: Non-Toxic
[8]
  inhibition: inactive
Toll-like receptor 1/2 [9]
  inhibition: Active
HEK293
  Activity: Non-Toxic
[10]
  inhibition: inactive
[11]
  Activity: 80%
Toll-like receptor 1/2 [12]
  inhibition: Active
[13]
  inhibition: inactive
Toll-like receptor 1/2 [14]
  inhibition: Active
BMDM
  Activity: Non-Toxic
TLR2/TLR6 (Homo sapiens)
  inhibition: inactive
Toll-like receptor 1/2 [15]
  inhibition: inactive
Toll-like receptor 1/2 [16]
  inhibition: 50%
[17]
  Activity: 70.2%
[18]
  inhibition: Active
Toll-like receptor 1/2 [19]
  IC50: 45.8 µM
  inhibition: Dose-dependent effect

## H-ENSKVFLVPC-OH
Toll-like receptor 1/2 [4]
  inhibition: Active

## H-HIPRFYLFY-OH
Toll-like receptor 1/2 [4]
  inhibition: 56%

## H-HIPRFYLFYD-OH
Toll-like receptor 1/2 [6]
  inhibition: Active
Toll-like receptor 1/2 [7]
  Activity: 51%
Toll-like receptor 1/2 [20]
  inhibition: Active
THP-1
  Activity: Non-Toxic
[8]
  inhibition: inactive
Toll-like receptor 1/2 [9]
  inhibition: Active
HEK293
  Activity: Non-Toxic
[10]
  inhibition: inactive
[11]
  Activity: 70%
Toll-like receptor 1/2 [12]
  inhibition: Active
[13]
  inhibition: inactive
Toll-like receptor 1/2 [14]
  inhibition: Active
BMDM
  Activity: Non-Toxic
TLR2/TLR6 (Homo sapiens)
  inhibition: inactive
Toll-like receptor 1/2 [15]
  inhibition: inactive
Toll-like receptor 1/2 [16]
  inhibition: 50%
[17]
  Activity: 37.4%
[18]
  inhibition: Active
Toll-like receptor 1/2 [19]
  IC50: 49.2 µM
  inhibition: Dose-dependent effect

## H-LHIPRFYLFYD-OH
Toll-like receptor 1/2 [4]
  inhibition: 56%

## H-RLHIPRFYL-OH
Toll-like receptor 1/2 [4]
  inhibition: 81.9%

## H-SENLMVEEYLK-OH
Toll-like receptor 1/2 [4]
  inhibition: 56%

## H-TIRRLHIPR-OH
Toll-like receptor 1/2 [4]
  inhibition: 84.1%

## H-VETLTIRRL-OH
Toll-like receptor 1/2 [4]
  inhibition: 86%

## H-VVSDVFGFP-OH
Toll-like receptor 1/2 [4]
  inhibition: Active
